Test results: patent US10167300B2, “Metalloenzyme inhibitor compounds as fungicides” (priority 2014, dated 2019)
Like-named read-outs stand apart in the source and are kept apart here.

Experiments:
Type in all cases: in vivo, Mycosphaerella graminicola on wheat plants (variety Yuma)
[1] = test system: Mycosphaerella graminicola; Anamorph: Septoria tritici; Bayer Code SEPTTR (standard laboratory isolate, SI SEPTTR); experiment: Type A (high volume) assay, leaf blotch of wheat, standard laboratory SEPTTR isolate (SI SEPTTR); details: Zymoseptoria tritici, 24 h, standard laboratory isolate; high volume; 50 ppm; 1 Day Protectant; wheat (Yuma); read-out: Disease Control, SI SEPTTR Type A Assay (50 ppm) 1 DP
In short: (§1)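 Wheat seedlings (Yuma, first leaf emerged) sprayed with acetone/Triton X-100 solutions (Type A) or 10% EC diluted in 0.1% Trycol at 200 L/ha (Type B), inoculated before or after spraying. Inoculated plants held 3 days at 20 °C, 100% RH, then greenhouse; % disease control from severity versus untreated plants.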

[2] = Type B (low volume, EC formulation, track sprayer 200 L/ha) assay, leaf blotch of wheat, SEPTTR field isolate (FI SEPTTR); details: Zymoseptoria tritici, 72 h, field isolate, low volume EC, 100 g/ha, wheat (Yuma)
In short: as §1

[3] = test system: Mycosphaerella graminicola; Anamorph: Septoria tritici; Bayer Code SEPTTR (standard laboratory isolate, SI SEPTTR); experiment: Type B (low volume, EC formulation, track sprayer 200 L/ha) assay, leaf blotch of wheat, standard laboratory SEPTTR isolate (SI SEPTTR); details: Zymoseptoria tritici, 72 h, standard laboratory isolate, low volume EC, 100 g/ha, wheat (Yuma)
Experimental: Example A: Evaluation of Fungicidal Activity: Leaf Blotch of Wheat (Mycosphaerella graminicola; Anamorph: Septoria tritici; Bayer Code SEPTTR)
For Type A assays, technical grades of the experimental fungicides in Table 4 below were dissolved in acetone, and then mixed with nine volumes of water containing 110 ppm Triton X-100. The fungicide solutions were applied onto wheat seedlings using an automated booth sprayer. For Type B assays, emulsifiable concentrate (EC) formulations of technical grades of the experimental fungicides in Table 4 below were prepared at 10% (w/v), and then mixed with 150 volumes of 0.1% Trycol 5941. These solutions were applied onto wheat seedlings using an automated track sprayer at 200 L/ha. All sprayed plants were allowed to air dry prior to further handling.
Wheat plants (variety Yuma) were grown from seed in a greenhouse in 50% mineral soil/50% soil-less Metro mix until the first leaf was fully emerged, with 7-10 seedlings per pot. Prior to or after application of experimental fungicides, plants were inoculated either with spores of a standard laboratory SEPTTR isolate (SI SEPTTR) or with spores from a SEPTTR field isolate collected from Wellsbourne, England in 2012 (FI SEPTTR). After inoculation the plants were kept for 3 days at 20° C. in 100% relative humidity (one day in a dark dew chamber followed by two days in a lighted dew chamber). Plants were then transferred to a 20° C. greenhouse for disease development. When disease symptoms were fully expressed on untreated plants, infection levels on treated plants were assessed on a scale of 0 to 100 percent disease severity. Percent disease control was calculated using the ratio of disease severity on treated plants relative to untreated plants.

[4] = 3 Day Curative, read-out: Disease Control, FI SEPTTR Type B Assay (100 g/ha) 3 DC
[5] = 3 Day Protectant, read-out: Disease Control, FI SEPTTR Type B Assay (100 g/ha) 3 DP
[6] = 3 Day Curative, read-out: Disease Control, SI SEPTTR Type B Assay (100 g/ha) 3 DC
[7] = 3 Day Protectant, read-out: Disease Control, SI SEPTTR Type B Assay (100 g/ha) 3 DP

SMILES	pest or weed control at 50 ppm [1] [%]	pest or weed control at 100 g/ha [2, 4] [%]	pest or weed control at 100 g/ha [2, 5] [%]	pest or weed control at 100 g/ha [3, 6] [%]	pest or weed control at 100 g/ha [3, 7] [%]
CC(C)(C)C(O)(c1cccnc1)c1ccc(-c2ccc(OC(F)F)cc2)cn1 (stereo not drawn) [Compound 82]	80 to 100	80 to 100	80 to 100	80 to 100	80 to 100
Cc1ncc(C(O)(c2ccc(-c3ccc(OC(F)(F)F)cc3)cn2)C(C)(C)C)cn1 (stereo not drawn) [Compound 83]	40 to 59	80 to 100	40 to 59	< 40	40 to 59
CC(C)(C)C(O)(c1ccc(-c2ccc(OC(F)(F)F)cc2)cn1)c1cncs1 (stereo not drawn) [Compound 84]	80 to 100	60 to 79	60 to 79	80 to 100	80 to 100
CC(C)(C)C(O)(c1ccc(-c2ccc(OC(F)F)cc2)cn1)c1cncs1 (stereo not drawn) [Compound 86]	60 to 79	80 to 100	80 to 100	80 to 100	80 to 100
CC(C)(C)C(O)(c1cncnc1)c1ccc(-c2ccc(C#N)cc2)cn1 (stereo not drawn) [Compound 88]	80 to 100	80 to 100	80 to 100	80 to 100	80 to 100
OC(c1ccc(-c2ccc(OC(F)(F)F)cc2)cn1)(c1cncs1)C1CC1 (stereo not drawn) [Compound 89]	80 to 100	40 to 59	60 to 79	80 to 100	80 to 100
OC(Cc1ccc(Cl)cc1F)(c1cccnc1)c1ccc(-c2ccc(OC(F)(F)F)cc2)cn1 (stereo not drawn) [Compound 90]	80 to 100	80 to 100	80 to 100	80 to 100	80 to 100
OC(c1cccnc1)(c1ccc(-c2ccc(OC(F)(F)F)cc2)cn1)c1ccc(F)cc1F (stereo not drawn) [Compound 91]	80 to 100	40 to 59	80 to 100	60 to 79	80 to 100
CC(C)(C)C(O)(c1cccnc1)c1ccc(-c2ccc(OCC(F)(F)F)cc2)cn1 (stereo not drawn) [Compound 92]	80 to 100	80 to 100	80 to 100	80 to 100	80 to 100
CCC(C)(C)C(O)(c1cncnc1)c1ccc(-c2ccc(OC(F)(F)F)cc2)cn1 (stereo not drawn) [Compound 93, 2,2-dimethyl-1-pyrimidin-5-yl-1-[5-[4-(trifluoromethoxy)phenyl]-2-pyridyl]butan-1-ol]	80 to 100	60 to 79	80 to 100	80 to 100	80 to 100
COc1ccc(-c2ccc(C(O)(c3cncnc3)C(C)(C)C)nc2)cc1 (stereo not drawn) [Compound 95]	80 to 100	80 to 100	80 to 100	80 to 100	80 to 100
CC(C)(C)C(O)(c1cncnc1)c1ccc(-c2ccc(C(F)(F)F)cc2)cn1 (stereo not drawn) [Compound 96]	80 to 100	80 to 100	80 to 100	80 to 100	80 to 100
CC(C)(C)c1ccc(-c2ccc(C(O)(c3cncnc3)C(C)(C)C)nc2)cc1 (stereo not drawn) [Compound 97]	80 to 100	80 to 100	80 to 100	80 to 100	80 to 100
CSc1ccc(-c2ccc(C(O)(c3cncnc3)C(C)(C)C)nc2)cc1 (stereo not drawn) [Compound 98]	80 to 100	80 to 100	80 to 100	80 to 100	80 to 100
CC(=O)c1ccc(-c2ccc(C(O)(c3cncnc3)C(C)(C)C)nc2)cc1 (stereo not drawn) [Compound 101]	80 to 100	80 to 100	80 to 100	80 to 100	80 to 100
CC(C)(C)C(O)(c1cncnc1)c1ccc(-c2ccc(OC3CC3)cc2)cn1 (stereo not drawn) [Compound 102]	80 to 100	80 to 100	80 to 100	80 to 100	80 to 100
CC(C)(C)C(O)(c1cncnc1)c1ccc(-c2cccc(OC(F)(F)F)c2)cn1 (stereo not drawn) [Compound 103]	80 to 100	< 40	80 to 100	60 to 79	80 to 100
CC(C)(C)C(O)(c1cncnc1)c1ccc(-c2ccccc2OC(F)(F)F)cn1 (stereo not drawn) [Compound 104]	80 to 100	< 40	80 to 100	80 to 100	80 to 100
CC(C)(C)C(O)(c1cncnc1)c1ccc(-c2ccc(C3(C#N)CC3)cc2)cn1 (stereo not drawn) [Compound 105]	80 to 100	80 to 100	80 to 100	80 to 100	80 to 100
CC(C)(C)C(O)(c1cncnc1)c1ccc(-c2ccc(OC(F)(F)F)c(F)c2)cn1 (stereo not drawn) [Compound 106]	80 to 100	80 to 100	80 to 100	80 to 100	80 to 100
CC(C)(C)C(O)(c1cncnc1)c1ccc(-c2ccc(C(F)(F)F)nc2)cn1 (stereo not drawn) [Compound 107]	80 to 100	80 to 100	60 to 79	80 to 100	60 to 79
CC(C)(C)C(O)(c1cncnc1)c1ccc(-c2ccccc2)cn1 (stereo not drawn) [Compound 114]	60 to 79	80 to 100	60 to 79	80 to 100	80 to 100
CC(C)(C)C(O)(c1cncnc1)c1ccc(-c2ccc(F)cc2)cn1 (stereo not drawn) [Compound 115]	80 to 100	80 to 100	80 to 100	80 to 100	80 to 100
Cc1cc(-c2ccc(C(O)(c3cncnc3)C(C)(C)C)nc2)ccc1OC(F)(F)F (stereo not drawn) [Compound 116]	60 to 79	80 to 100	60 to 79	80 to 100	80 to 100
Cc1cc(OC(F)(F)F)ccc1-c1ccc(C(O)(c2cncnc2)C(C)(C)C)nc1 (stereo not drawn) [Compound 117]	80 to 100	80 to 100	80 to 100	80 to 100	80 to 100
Cc1ncncc1C(O)(c1ccc(-c2ccc(OC(F)(F)F)cc2)cn1)C(C)(C)C (stereo not drawn) [Compound 118]	80 to 100	80 to 100	80 to 100	80 to 100	80 to 100
CC(C)(C)C(O)(c1cncnc1)c1ccc(-c2ccc(OCC(F)(F)F)cc2)cn1 (stereo not drawn) [Compound 120]	80 to 100	80 to 100	60 to 79	80 to 100	80 to 100
